The results in this text go back to patent US20200190062A1, “HETEROCYCLIC COMPOUND AND PHARMACEUTICAL COMPOSITION COMPRISING SAME” (BEYONDBIO INC., priority 2015, published 2020).

One test relates to SH-SY5Y. Put plainly: Inhibition of cancer cell proliferation (MTT). The class given is cell-based, human. Particulars: Homo sapiens, SH-SY5Y, 72 h. A digest of the protocol: (§1)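 Growth inhibition over 72 h was measured in attached cultures (3000 per well) with 0.08% DMSO as the control. Viable cells were detected with a 2 h MTT step, and the concentration giving 50% inhibition was taken as GI50.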

The next test concerns SK-N-SH. Put plainly: Inhibition of cancer cell proliferation (MTT). To be noted: Homo sapiens, SK-N-SH, 72 h. The class given is cell-based, human. A digest of the protocol: as §1
For another test, the system named is U-87MG. Put plainly: Inhibition of cancer cell proliferation (MTT). It is filed as cell-based, human. To be noted: Homo sapiens, U-87 MG, 72 h. A digest of the protocol: as §1
Another test concerns HCT116. The test is described as follows: Inhibition of cancer cell proliferation (MTT). It is filed as cell-based, human. To be noted: Homo sapiens, HCT-116, 72 h.
Another test has as its target T1, CDK4/cyclinD1 (Homo sapiens, UniProt P11802).
T1 construct: purchased Signalchem (US)
The test is described as follows: Inhibition of CDK enzyme activity (ADP-Glo kinase assay). It is filed as biochemical. Particulars: 10 uM ATP, Rb protein substrate; read-out: IC50 CDK4/cyclinD. Here is the method: (§2) Test compounds were prepared by dissolving the compounds obtained in the above Examples in dimethylsulfoxide (DMSO) at a concentration of 10 mM. The test compounds were diluted to 200 nM, 50 nM, […], 3.13 nM, 0.78 nM, and 0.2 nM and used in an enzyme reaction.
(§3) CDK enzyme reaction was conducted in a buffer containing 50 mM Tris-HCl (pH 7.5), 10 mM MgCl2, 1 mM EGTA, 1 mM EDTA, and 2 mM DTT. CDK1/cyclinB, CDK2/cylcinE, CDK5/p25, and CDK6/cyclinD3 enzymes commercially available from Merck Millipore were used for CDK1, CDK2, CDK5, and CDK6 enzymes, respectively, and CDK4/cyclinD1 enzyme commercially available from Signalchem (US) was used for CDK4. For CDK1, a reaction proceeded by adding 10 nM CDK1/cyclinB and 0.125 mg/ml histone H1 (Merck Millipore) substrate to the buffer and then adding 10 uM ATP thereto. For CDK2, a reaction was proceeded by adding 10 nM CDK2/cyclinE and 0.125 mg/ml histone H1 substrate to the buffer and then adding 10 uM ATP thereto. For CDK5, a reaction was proceeded by adding 10 nM CDK5/p25 and 0.125 mg/ml histone H1 substrate to the buffer and then adding 10 uM ATP thereto. For CDK4, a reaction was proceeded by adding 20 nM CDK4/cyclinD1 and 0.125 mg/ml Rb protein (Merck Millipore) to the buffer and then adding 10 uM ATP thereto. For CDK6, a reaction was proceeded by adding 50 nM CDK6/cyclinD3 and 0.125 mg/ml histone H1 substrate to the buffer and then adding 10 uM ATP thereto. Each enzyme reaction was incubated at 30° C. for 60 min. Then, the amount of ADP produced was measured using Victor X4 instrument (Perkin Elmer) after generating luminescence using ADP-Glo kinase assay kit (Promega, US). An inhibition effect on each enzyme was represented as a percentage of the luminescence value in the presence of the test compounds relative to the luminescence value without the test compounds. IC50 (nM) is the concentration of the compound to inhibit 50% of the enzyme activity.

The target of another test is T2, CDK6/cyclinD3 (Homo sapiens, UniProt Q00534).
T2 construct: purchased Merck Millipore
Described as above. The class given is biochemical. To be noted: 10 uM ATP, histone H1 substrate; read-out: IC50 CDK6/cyclinD. The protocol:
as §2, §3

Another test addresses T3, CDK5/p25 (Homo sapiens, UniProt Q00535).
T3 construct: purchased Merck Millipore
The description is as above. It is filed as biochemical. Particulars: 10 uM ATP, histone H1 substrate. The protocol:
as §2, §3

Another test addresses T4, CDK2/cyclinE (Homo sapiens, UniProt P24941).
T4 construct: purchased Merck Millipore
The description is as above. The class given is biochemical. To be noted: 10 uM ATP, histone H1 substrate. Here is the method:
as §2, §3

The next test has as its target T5, CDK1/cyclinB (Homo sapiens, UniProt P06493).
T5 construct: purchased Merck Millipore
The test is described as above. It is filed as biochemical. Particulars: 10 uM ATP, histone H1 substrate. Here is the method: as §2, §3

A further test relates to T98G. Put plainly: Inhibition of cancer cell proliferation (MTT). The class given is cell-based, human. To be noted: Homo sapiens, T98G, 72 h. A digest of the protocol:
as §1

T5 sequence (P06493 whole entry): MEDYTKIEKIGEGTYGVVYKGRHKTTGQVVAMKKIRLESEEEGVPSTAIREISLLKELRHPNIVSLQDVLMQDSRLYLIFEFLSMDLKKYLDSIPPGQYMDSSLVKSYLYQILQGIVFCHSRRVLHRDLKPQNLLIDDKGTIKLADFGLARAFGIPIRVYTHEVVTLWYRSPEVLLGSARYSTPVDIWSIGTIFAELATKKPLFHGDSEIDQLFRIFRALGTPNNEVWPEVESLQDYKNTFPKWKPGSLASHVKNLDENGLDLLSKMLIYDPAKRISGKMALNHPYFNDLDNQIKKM
T5 sequence (P14635 whole entry partner): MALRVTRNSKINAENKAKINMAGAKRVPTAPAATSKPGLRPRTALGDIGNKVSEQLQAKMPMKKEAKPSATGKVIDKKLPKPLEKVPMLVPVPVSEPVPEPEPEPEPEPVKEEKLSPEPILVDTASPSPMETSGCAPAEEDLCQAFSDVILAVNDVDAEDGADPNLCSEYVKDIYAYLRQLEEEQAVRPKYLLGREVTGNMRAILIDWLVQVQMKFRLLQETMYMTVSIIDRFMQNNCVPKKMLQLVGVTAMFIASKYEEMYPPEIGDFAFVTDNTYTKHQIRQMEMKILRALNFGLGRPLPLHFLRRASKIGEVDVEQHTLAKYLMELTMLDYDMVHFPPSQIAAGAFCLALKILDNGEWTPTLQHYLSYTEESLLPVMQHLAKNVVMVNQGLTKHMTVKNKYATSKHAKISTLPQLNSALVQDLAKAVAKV
T1 sequence (P11802 whole entry): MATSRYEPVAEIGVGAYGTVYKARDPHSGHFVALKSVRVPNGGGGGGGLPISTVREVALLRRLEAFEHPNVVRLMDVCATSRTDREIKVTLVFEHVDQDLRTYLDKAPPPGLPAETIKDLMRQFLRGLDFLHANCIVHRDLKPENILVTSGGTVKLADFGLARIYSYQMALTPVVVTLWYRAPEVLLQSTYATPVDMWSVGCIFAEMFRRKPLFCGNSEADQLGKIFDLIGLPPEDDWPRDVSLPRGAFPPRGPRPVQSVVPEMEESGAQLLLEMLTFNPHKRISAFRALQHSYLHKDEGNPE
T1 sequence (P24385 whole entry partner): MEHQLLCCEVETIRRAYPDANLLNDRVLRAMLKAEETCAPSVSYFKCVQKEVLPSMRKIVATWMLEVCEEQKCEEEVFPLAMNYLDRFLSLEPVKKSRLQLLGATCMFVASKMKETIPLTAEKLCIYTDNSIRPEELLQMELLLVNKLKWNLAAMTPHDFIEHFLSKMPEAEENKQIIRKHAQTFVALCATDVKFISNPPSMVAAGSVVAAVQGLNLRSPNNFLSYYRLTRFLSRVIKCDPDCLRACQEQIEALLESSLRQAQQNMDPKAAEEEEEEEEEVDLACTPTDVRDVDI
T3 sequence (Q00535 whole entry): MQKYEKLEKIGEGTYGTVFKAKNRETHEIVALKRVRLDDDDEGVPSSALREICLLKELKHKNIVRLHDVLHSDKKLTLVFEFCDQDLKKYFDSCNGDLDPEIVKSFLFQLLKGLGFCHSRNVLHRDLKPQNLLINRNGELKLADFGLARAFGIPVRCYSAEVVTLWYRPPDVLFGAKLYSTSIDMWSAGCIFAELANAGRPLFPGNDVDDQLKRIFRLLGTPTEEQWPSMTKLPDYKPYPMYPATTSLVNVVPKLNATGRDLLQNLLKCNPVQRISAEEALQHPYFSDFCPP
T3 sequence (Q15078 99-307 partner limits assumed): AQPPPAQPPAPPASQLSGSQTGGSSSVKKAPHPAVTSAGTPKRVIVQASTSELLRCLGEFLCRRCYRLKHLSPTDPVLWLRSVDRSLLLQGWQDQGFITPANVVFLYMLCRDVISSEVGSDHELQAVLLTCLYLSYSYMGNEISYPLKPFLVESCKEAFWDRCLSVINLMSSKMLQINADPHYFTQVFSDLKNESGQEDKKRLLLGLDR
T2 sequence (Q00534 whole entry): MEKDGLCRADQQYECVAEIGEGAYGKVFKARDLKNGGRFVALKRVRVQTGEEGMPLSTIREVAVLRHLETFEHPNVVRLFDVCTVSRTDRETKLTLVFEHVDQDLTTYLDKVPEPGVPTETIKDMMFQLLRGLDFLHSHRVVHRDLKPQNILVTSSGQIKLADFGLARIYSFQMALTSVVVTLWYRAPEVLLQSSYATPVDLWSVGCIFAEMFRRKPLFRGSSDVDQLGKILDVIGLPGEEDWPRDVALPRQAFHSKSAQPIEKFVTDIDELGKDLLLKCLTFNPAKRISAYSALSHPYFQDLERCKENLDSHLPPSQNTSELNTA
T2 sequence (P30281 whole entry partner): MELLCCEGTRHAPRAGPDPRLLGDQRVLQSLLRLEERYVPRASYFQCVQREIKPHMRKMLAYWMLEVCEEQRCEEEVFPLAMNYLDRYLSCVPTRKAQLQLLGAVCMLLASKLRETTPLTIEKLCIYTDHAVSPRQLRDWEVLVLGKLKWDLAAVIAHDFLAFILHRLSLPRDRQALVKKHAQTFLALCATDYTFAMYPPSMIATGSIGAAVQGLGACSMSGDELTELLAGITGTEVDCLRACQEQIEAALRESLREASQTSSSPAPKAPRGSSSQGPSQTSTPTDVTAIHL

As for `Nc1nccc(-c2nc(-c3ccc(O)cc3)ccc2O)n1` [Example 9, 2-(2-aminopyrimidin-4-yl)-6-(4-hydroxyphenyl)pyridin-3-ol], the 50% growth inhibitory concentration (GI50) was found to be 90 nM with SH-SY5Y, 200 nM in the test on SK-N-SH, 630 nM in the test with U-87MG and 200 nM with HCT116. In addition, the IC50 came out at 287 nM on CDK4/cyclinD1; 44.8 nM on CDK6/cyclinD3; 2.3 nM on CDK5/p25; 6.4 nM against CDK2/cyclinE; 11.6 nM against CDK1/cyclinB.
For `Nc1nccc(-c2nc(-c3ccc(O)cc3F)ccc2O)n1` [Example 17, 2-(2-aminopyrimidin-4-yl)-6-(2-fluoro-4-hydroxyphenyl)pyridin-3-ol], the GI50 in the test on SH-SY5Y was found to be 290 nM; in the test on SK-N-SH it was 840 nM; in the test on U-87MG, 1700 nM; in the test with HCT116 it was 610 nM. In addition, the IC50 at CDK4/cyclinD1 is greater than 200 nM; at CDK6/cyclinD3, 65.3 nM; on CDK5/p25 it was 3.3 nM; against CDK2/cyclinE, 9.4 nM; on CDK1/cyclinB it was 30.8 nM.
`Nc1nccc(-c2nc(-c3cccc(N)c3F)ccc2O)n1` [Example 18, 6-(3-amino-2-fluorophenyl)-2-(2-aminopyrimidin-4-yl)pyridin-3-ol]: the 50% growth inhibitory concentration (GI50) stood at 200 nM in the test with SH-SY5Y, 780 nM in the test with SK-N-SH, 5860 nM with U-87MG and 340 nM in the test on HCT116. Further, the IC50 at CDK4/cyclinD1 was greater than 200 nM; on CDK6/cyclinD3, 181 nM; against CDK5/p25, 6.1 nM; at CDK2/cyclinE it was 10.7 nM; against CDK1/cyclinB it was 26.8 nM.
In the case of `Nc1nccc(-c2nc(-c3ccnc(N)c3O)ccc2O)n1` [Example 21, 2′-amino-6-(2-aminopyrimidin-4-yl)-[2,4′-bipyridin]-3′,5-diol], the GI50 in the test with SH-SY5Y was 110 nM; in the test on SK-N-SH it was 310 nM; with U-87MG it was 890 nM; in the test on HCT116 it was 140 nM. Moreover, the IC50 turned out to be 403 nM on CDK4/cyclinD1; 73.6 nM at CDK6/cyclinD3; 1.5 nM against CDK5/p25; 4.5 nM at CDK2/cyclinE; 6.1 nM at CDK1/cyclinB.
With `Nc1nccc(-c2nc(-c3ccc(O)c(F)c3)ccc2O)n1` [Example 19, 2-(2-aminopyrimidin-4-yl)-6-(3-fluoro-4-hydroxyphenyl)pyridin-3-ol], the GI50 was found to be 120 nM in the test on SH-SY5Y; 210 nM in the test on SK-N-SH; 440 nM in the test with U-87MG; 2610 nM in the test with T98G; 460 nM in the test on HCT116. The IC50 on CDK4/cyclinD1 was greater than 200 nM; at CDK6/cyclinD3, 129 nM; on CDK5/p25, 6.4 nM; on CDK2/cyclinE, 14.6 nM; on CDK1/cyclinB, 19.6 nM.
